From publication PMC2978097, “Inhibiting α-Synuclein Oligomerization by Stable Cell-Penetrating β-Synuclein Fragments Recovers Phenotype of Parkinson's Disease Model Flies” (PLoS ONE, 2010)
Where a SMILES comes first, the peptide text is derived from it. Where no end group is shown, it is not given here. [ ]: non-standard residue; d: D form.

Columns and labels:
α-syn monomers = target: T1, α-syn monomers (Homo sapiens, UniProt P37840); assay: Fluorescence anisotropy titration with α-syn monomers; assay type: binding; settings: fluorescent anisotropy, increasing amounts of α-syn monomers titrated into the peptide solution; Figure S1; read-out: affinity constant (Kd) towards α-syn monomers
T1 construct: made in house; host or cells: E. coli BL21 (pT7-7)
Procedure: To evaluate the binding of the peptides to α-syn, increasing amounts of α-syn monomers were titrated into a solution of the modified β-syn 36 peptide and anisotropy was determined (Figure S1). The affinity constant was determined to be ∼1 µM.
Supplementary file pone.0013863.s001.tif: Figure S1 The affinity of the modified β-syn 36 containing tryptophan instead of tyrosine towardsα-syn monomers was examined using fluorescent anisotropy. Kd = 1 µM. (0.02 MB TIF) Click here for additional data file.

[1] = In vitro peptide stability in mouse brain homogenate; assay type: in vitro ADME; settings: 20% peptide solution (1 mM in Tris pH 7.6) and 80% of 10% ICR mouse brain homogenate (0.5% Triton X-100), 37°C, two hours; C18 HPLC, UV 280 nm peak area vs sample in Tris buffer; Figure 5
Procedure: Peptides were dissolved to give a 1 mM solution in […] (pH 7.6). 120 µl of the peptide solution was diluted into a 10% freshly-made homogenate of mouse brain excluding the cerebellum (in 1× Tris buffer and 0.5% Triton X-100). A mixture containing 20% peptide solution and 80% mouse brain homogenate was incubated at 37°C with delicate shaking for two hours. The enzyme reaction was stopped by adding 0.1 M HCl solution, followed by denaturation of the protein using methanol and incubation at 20°C for one hour. The precipitated proteins were centrifuged at 29,000×g for 20 minutes at 4°C and the supernatant containing the peptide was concentrated under vacuum and separated using a C18 HPLC column. The area of the peak (UV absorbance at 280 nm) corresponding to the intact peptide was compared with an equivalent sample incubated in […].
Figure 5 Serum stability of β-syn 36 peptides. Brain extract of wild type ICR white mouse was incubated with the peptides β-syn 36 and retro-inverso β-syn 36 for two hours and loaded on a C18 column for serum stability analysis. (A) Spectra of the β-syn 36 peptide (blue) and β-syn 36 peptide with brain extract (red). […] (C) Quantification of the area under the peak. The area of the peptide in time ‘0’ was determined as 100%. […]

PC12 cells = assay: Toxicity towards cultured PC12 cells; assay type: cell-based; settings: concentrations up to 1 mM in the growing medium, twenty four hours; data not shown
Source text: Our best inhibitor candidate was the β-syn 36 peptide which inhibited both the soluble and insoluble fibrillar aggregates of α-syn.

For `CC(C)C[C@@H](NC(=O)[C@H](NC(=O)CN)C(C)C)C(=O)N[C@H](Cc1c[nH]c2ccccc12)C(=O)N[C@@H](C(=O)NCC(=O)N[C@H](CO)C(=O)N[C@H](CCCCN)C(=O)N[C@@H](C(=O)N[C@H](CCCNC(=N)N)C(=O)O)[C@H](C)O)C(C)C` [Y39W β-syn 36D] (H-G[dV][dL][dW][dV]G[dS][dK][dT][dR]-OH), the Kd (α-syn monomers) was 1000 nM.

With `CC(C)C[C@@H](NC(=O)[C@@H](Cc1ccc(O)cc1)NC(=O)[C@H](NC(=O)CNC(=O)[C@@H](CO)NC(=O)[C@@H](CCCCN)NC(=O)[C@H](NC(=O)[C@H](N)CCCNC(=N)N)[C@H](C)O)C(C)C)C(=O)N[C@@H](C(=O)NCC(=O)O)C(C)C` [retro-inverso β-syn 36] (H-[dR][dT][dK][dS]G[dV][dY][dL][dV]G-OH) the “stability in mouse brain homogenate (called serum stability)” value [1] was “more stable than the unmodified β-syn 36”.

For GVLYVGSKTR [β-syn 36], the “toxicity towards cultured cells (PC12)” value (PC12 cells) was “no toxicity”.
